# Measured values from US8435576B2, “Use of cocoa polyphenols for treating a prostate hyperplasia, a specific cocoa extract and applications” (Barry Callebaut AG, priority 2005, dated 2013).
# Read-outs that look alike come from different tables or passages of the source. Marks after values point to notes of the source that are not given here.
# Legend:
# Experiment in all cases: Cell growth and viability (neutral red / sulforhodamine B) and morphology
# Type in all cases: cell-based, human
# DU145 cells = test system: DU145 cells
# Procedure: (§1) Each product (1 to 5) was applied for 1 to 72 hours, at various concentrations. The number of cells was compared with a control, namely cells cultured in the absence of the test compound.
# (§2) The human prostate carcinoma cells DU145 and 22Rv1 were supplied by the American Type Culture Collection (ATCC, Rockville, Md.). The DU145 cells originate from a cerebral metastasic site and are not sensitive to androgens. The 22Rv1 cells originate from a prostate carcinoma and are sensitive to androgens. The cells were maintained in the form of a monolayer culture according to the usual techniques, in […] flasks (Corning), at 37° C., in an atmosphere containing 5% CO2 and at 95% humidity, in an RPMI-1640 medium free of phenol red and supplemented with 10% of heat-inactivated fetal calf serum and 1% of L-glutamine.
# (§3) Five products were tested for this study and were stored protected from light, at +4° C. The β-sitosterol (product 1), obtained from Sigma Chemicals, was first dissolved in absolute ethanol, up to a final concentration of 24.1 mM. Product 2, supplied by Barry Callebaut, France, is a defatted cocoa extract containing 35.5% polyphenols and 0.081% β-sitosterol. Product 3 was reconstituted from products 1 and 2 and contained 35.5% polyphenols and 0.72% β-sitosterol. Products 4 and 5 were manufactured by Barry Callebaut, France. The composition of product 4 is unknown, and contains no β-sitosterol. Product 5 contains 35.27% polyphenols and 0.72% β-sitosterol. Products 2, 3, 4 and 5 were first dissolved in whole medium. As regards products 2, 4 and 5, the total polyphenols of the cocoa extracts originate from different countries.
# (§4) Just before use, the final concentrations of products (table 1) used are prepared for the various experiments by means of stock solutions, by diluting the stock solution in whole medium. 64.2 μM of β-sitosterol is the maximum dose used in this solubility range and in the physiological range (4 to 70 μM). The absolute ethanol is at a constant concentration of 0.26% in the solvent-based control, in the negative control and in the 8 test concentrations. The ratios of the β-sitosterol and of the polyphenols for products 2, 3 and 5 are as follows: • Product 2:2:1000 • Product 3:2:100 • Product 5:2:100
# (§5) The cells were inoculated on 96-well plates at an initial density of 15 000 cells/well for DU145, at an initial density of 30 000 cells/well for 22Rv1 and at an initial density of 25 000 cells/well for RWEP-1, with 200 μL of medium per well. The cell density was optimized as a function of the time required to double the population of cells, in order to obtain a significant measurement of the Optical Density (OD) and to be able to compare the various cells lines. After 24 hours, in order to ensure uniform fixing of the cells from the start of the experiments, the products were added to the cell cultures at various concentrations and at various times. After incubation with the products, the growth and viability of the cells was measured using neutral red (NR) and sulforhodamine B (SRB) combined (In Cytotox, Vandoeuvre, France). The absorption of the vital stain NR was used by the lysosomes/endosomes and by the vacuoles of the live cells as a quantitative indication of the number and viability of the cells after treatment with a chemical test. The anionic stain SRB made it possible to quantify the viable cells via measurement of the protein content of the cells.
# (§6) The cytotoxicity was evaluated 1, 3, 6, 24, 48 and 72 hours after incubating the 22Rv1, RWEP-1 and DU145 cells with the products. The cells were washed with 200 μl of washing solution in order to remove the culture medium supplemented with the products. 200 μL of neutral red base medium was added and incubated with the cells at 37° C. for 3 hours. The neutral red base medium was then removed and the cells were washed twice with phosphate-buffered physiological saline (PBS). The cells were fixed for 1 minute with 200 μL of fixing solution. […]
# 22Rv1 cells = conditions: for IC50: 72 h, read-out: CI50 (the source's name)
# Procedure: as §1, §2, §3, §4, §5, §6
# RWEP-1 cells = test system: RWEP-1 cells
# Procedure: as §1
# The RPMI-1640 medium, the fetal calf serum and the L-glutamine were supplied by Gibco BRL (Cergy Pontoise, France). The cell cultures were replaced every 5 days to ensure exponential growth. The normal human prostate cells RWEP-1 were supplied by the American Type Culture Collection (ATCC, Rockville, Md.). The cells were maintained in the form of a monolayer culture according to the usual techniques, in […] flasks, at 37° C., in an atmosphere containing 5% CO2 and at 95% humidity, in a medium free of serum and of keratinocytes, supplemented with 2.5 μg of recombinant human EGF and 25 mg of calf pituitary extract. The medium was supplied by Gibco BRL (Cergy Pontoise, France).
# as §3, §4, §5
# as §6, with “(PBS).” for “(PBS). The cells were fixed for 1 minute with 200 μL of fixing solution.”
smiles,measurement,setting,value
CC[C@H](CC[C@@H](C)[C@H]1CC[C@H]2[C@@H]3CC=C4C[C@@H](O)CC[C@]4(C)[C@H]3CC[C@]12C)C(C)C [β-sitosterol],max. inhibition,"DU145 cells; 24 h, DU145, NR",11%
same,max. inhibition,"DU145 cells; 24 h, DU145, SRB",42%
same,max. inhibition,"DU145 cells; 48 h, DU145, NR",21%
same,max. inhibition,"DU145 cells; 48 h, DU145, SRB",44%
same,max. inhibition,"DU145 cells; 72 h, DU145, NR",42%
same,max. inhibition,"DU145 cells; 72 h, DU145, SRB",40%
same,Morphological alterations,"DU145 cells; DU145, maximum concentration, up to 48 hours",No significant difference was observed in terms of density and morphology
same,IC50,"DU145 cells; DU145, short-term and long-term treatments",did not induce an IC50
same,Inhibition of lysosomial activity or protein synthesis,"22Rv1 cells; 22Rv1, 1, 3 and 6 hours of treatment",did not inhibit the lysosomial activity or protein synthesis
same,Morphological alterations,"22Rv1 cells; 22Rv1, maximum concentration, up to 48 hours",No significant difference in terms of density and morphology
same,max. inhibition,"22Rv1 cells; 24 h, 22RV1, NR",49%
same,max. inhibition,"22Rv1 cells; 24 h, 22RV1, SRB",49%
same,max. inhibition,"22Rv1 cells; 48 h, 22RV1, NR",36%
same,max. inhibition,"22Rv1 cells; 48 h, 22RV1, SRB",47%
same,IC50,"22Rv1 cells; 22RV1, NR",17.8 µM
same,IC50,"22Rv1 cells; 22RV1, SRB",34 µM
same,max. inhibition,"RWEP-1 cells; 24 h, RWEP1, NR",15%^b
same,max. inhibition,"RWEP-1 cells; 24 h, RWEP1, SRB",9%
same,max. inhibition,"RWEP-1 cells; 48 h, RWEP1, NR",29%
same,max. inhibition,"RWEP-1 cells; 48 h, RWEP1, SRB",48%
same,max. inhibition,"RWEP-1 cells; 72 h, RWEP1, NR",11%
same,max. inhibition,"RWEP-1 cells; 72 h, RWEP1, SRB",26%
same,IC50,"RWEP-1 cells; RWEP-1, between 1 and 72 hours of treatment",never reached
